Laboratory results as given in ChEMBL document CHEMBL1275428, “First case of emergence of atovaquone-proguanil resistance in Plasmodium falciparum during treatment in a traveler in Comoros” (Antimicrob Agents Chemother, 2008).

System: Plasmodium falciparum
Experiment: not given
Format: functional, organism-based
Conditions: 552 h

Structure (SMILES)	IC50
O=C1C(O)=C([C@H]2CC[C@H](c3ccc(Cl)cc3)CC2)C(=O)c2ccccc21 [ATOVAQUONE]	0.39 µM

System: Plasmodium falciparum
Experiment: microbe, parasite or virus in culture
Conditions: not given

Structure (SMILES)	IC50
CCCCN(CCCC)CC(O)c1cc(Cl)cc2c1-c1ccc(Cl)cc1/C2=C/c1ccc(Cl)cc1 (stereo unspecified) [LUMEFANTRINE]	0.0152 µM
CCNCc1cc(Nc2ccnc3cc(Cl)ccc23)ccc1O [DESETHYL AMODIAQUINE]	0.0305 µM
CCc1nc(N)nc(N)c1-c1ccc(Cl)cc1 [PYRIMETHAMINE]	2.51 µM
OC(c1cc(C(F)(F)F)nc2c(C(F)(F)F)cccc12)C1CCCCN1 (stereo unspecified) [MEFLOQUINE]	0.0341 µM
CC1(C)N=C(N)N=C(N)N1c1ccc(Cl)cc1 [CYCLOGUANIL]	0.25 µM
